Source: US8409552B2, “Anthranillic acid amides and derivatives thereof as cosmetic and pharmaceutical active compounds” (Symrise AG, priority 2002, dated 2013)
≈ marks a conversion by molar mass, not a printed value. Where two headings read alike, the source gives them in different places.

Experiments:
[1] = tested on: mast cells; details: cited from earlier work
[2] = tested on: Mast cells from the peritoneal tissue of rats; experiment: Inhibition of substance P-induced release of histamine from mast cells; assay type: cell-based, rat; details: for IC50: positive control, read-out: concentration for 50% inhibition of substance P-induced release of histamine; for inhibition at 0.5 µg/mL / inhibition at 5 µg/mL / inhibition at 50 µg/mL: Rattus norvegicus, Mast cell, 2 min, substance P 10 μM, 37° C., based on histamine content of cells stimulated with substance P; for inhibition at 0.5 µg/mL: 0.5 ppm synthetic substance; for inhibition at 5 µg/mL: 5 ppm synthetic substance; for inhibition at 50 µg/mL: 50 ppm synthetic substance; for activity in inhibiting substance P-induced histamine release, in words: structure/activity considerations, Tables 1a/1b
Method: Stock solutions: avenanthramides 2 to 19 (structural formulae: see Table 1a) and dianthramides 20-29 (structural formulae: see Table 1b); concentration: 1% in ethanol; storage before use at 4° C.) Mast cells from the peritoneal tissue of rats were isolated by centrifuging on metrizamide and stimulated with substance P (10 μM). […] The synthetically prepared avenanthramides and dianthramides of the Formulae 2 to 29 (cf. […] Test system: The final test solutions were incubated for 2 minutes in the presence of substance P and of the reference substance (CaCl2) or of the particular sample to be tested (incubation temperature: 37° C.). Cells that had been incubated in the absence of substance P and reference or sample substance served as blank. The reaction solutions were first freed from cell constituents by centrifuging. The histamine present in the supernatant liquor was then converted to a derivative with OPT and the fluorescence of the solutions was determined photometrically (fluorometer Cytofluor 2350). […] The values for the various avenanthramides are given in Table 2 as % inhibition based on the histamine content of cells stimulated with substance P without the addition of inhibitors.

[3] = tested on: rat mast cells; details: oral application, dose of 200 mg/kg; cited from earlier work
[4] = tested on: mast cells; experiment: Substance P-induced release of histamine from mast cells (Hachisuka et al.); assay type: cell-based; details: 10^−3 M converted with molecular weight 327
Excerpt: As Komatsu et al report, tranilast inhibits the antigen-(DNP ascaris; monoclonal IgE antibody with 2,4-dinitrophenyl-specificity) induced release of histamine from mast cells in the concentration range of 10^−3 to 10^−5 M. It was possible to achieve 50% inhibition of the histamine release at a concentration of approximately 10^−4 M. On the other hand, the influence of other anthranilic acid amides on the inhibition of the release of histamine from mast cells was not described in the publication. Hachisuka et al. (Arch. Dermatol. Res. Vol. 280, p. 158-162; 1988) investigated the influence of various active compounds on the inhibition of the substance P-induced release of histamine from mast cells. Here the activity of disodium chromogylcate (sic), ketotifen and tranilast was compared. […] Other anthranilic acid amides were not investigated in more detail within the framework of this research work either.
The comparatively low activity of tranilast agrees with the research carried out by Hachisuka et al. (Arch Dermatol Res Vol. 280, p. 158-162; 1988). […] Apparently, the alkylation of the vicinal hydroxyl groups in the cinnamic acid part or dihydrocinnamic acid part is accompanied by a significant reduction in activity.

[5] = tested on: mast cells; details: cited from earlier work; remark: listed apart in the source

Structure (SMILES) | inhibition at 0.5 µg/mL [2] [%] | inhibition at 5 µg/mL [2] [%] | inhibition at 50 µg/mL [2] [%] | also measured
O=C([O-])c1cc(=O)c2c(OCC(O)COc3cccc4oc(C(=O)[O-])cc(=O)c34)cccc2o1.[Na+].[Na+] [DSCG, disodium cromoglycate] | – | – | – | inhibition of substance P-induced histamine release ([1]; at 10^−3 M): 41%
[Ca+2].[Cl-].[Cl-] [calcium chloride, reference compound] | – | – | – | IC50 ([2]; test series 3.1 (synthetic anthranilic acid amides)): 639 µM; IC50 ([2]; test series 3.2 (oat fraction vs reconstituted product)): 432 µM
O=C(/C=C/c1ccc(O)c(O)c1)Nc1ccccc1C(=O)O [compound 2] | 7 | 80 | 108 | activity in inhibiting substance P-induced histamine release, in words [2]: complete inhibition of the histamine release
O=C(/C=C/c1ccc(O)c(O)c1)Nc1ccc(O)cc1C(=O)O [compound 3] | 11 | 62 | 106 | activity in inhibiting substance P-induced histamine release, in words [2]: complete inhibition of the histamine release
COc1cc(/C=C/C(=O)Nc2ccc(O)cc2C(=O)O)ccc1O [compound 4] | 3 | 49 | 59 | –
O=C(CCc1ccc(O)cc1)Nc1ccc(O)cc1C(=O)O [compound 5] | 7 | 17 | 47 | –
O=C(/C=C/c1ccc(O)cc1)Nc1cc(O)ccc1C(=O)O [compound 6] | -9 | 1 | 41 | –
O=C(/C=C/c1ccc(O)cc1)Nc1ccc(O)cc1C(=O)O [compound 7] | 27 | 26 | 40 | –
O=C(CCc1ccc(O)cc1)Nc1ccccc1C(=O)O [compound 8] | 13 | 26 | 40 | –
COc1cc(/C=C/C(=O)Nc2ccccc2C(=O)O)ccc1O [compound 9] | 11 | 19 | 39 | –
O=C(/C=C/c1ccc(O)cc1)Nc1ccccc1C(=O)O [compound 10] | -10 | 8 | 37 | –
COc1ccc(CCC(=O)Nc2ccc(O)cc2C(=O)O)cc1OC [compound 11] | -6 | 11 | 36 | –
O=C(/C=C/c1ccccc1)Nc1ccc(O)cc1C(=O)O [compound 12] | -5 | 0 | 34 | –
COc1ccc(/C=C/C(=O)Nc2ccc(O)cc2C(=O)O)cc1OC [compound 13] | 17 | 2 | 30 | –
COc1ccc(/C=C/C(=O)Nc2ccccc2C(=O)O)cc1 [compound 14] | 21 | 30 | 24 | –
COc1ccc(/C=C/C(=O)Nc2ccccc2C(=O)O)cc1OC [compound 15] | 23 | 22 | – | –

Structure (SMILES) | inhibition at 0.5 µg/mL [2] [%] | inhibition at 5 µg/mL [2] [%] | inhibition at 50 µg/mL [2] [%] | also measured
COC(=O)c1ccccc1NC(=O)CCc1ccc(OC)c(OC)c1 [compound 16] | 26 | 25 | 7 | –
O=C(/C=C/c1ccccc1)Nc1ccccc1C(=O)O [compound 17] | 4 | 7 | 6 | –
COC(=O)c1ccccc1NC(=O)/C=C/c1ccc(OC)c(OC)c1 [compound 18] | 5 | -3 | 6 | –
COc1ccc(CCC(=O)Nc2ccccc2C(=O)O)cc1OC [compound 19] | -15 | -22 | -4 | –
O=C(Nc1ccccc1C(=O)O)c1ccc(O)c(O)c1 [compound 20, 2-[(3,4-dihydroxybenzoyl)amino]benzoic acid] | 14 | 76 | 110 | activity in inhibiting substance P-induced histamine release, in words [2]: greatest activity
O=C(Nc1ccc(O)cc1C(=O)O)c1ccc(O)cc1 [compound 21] | -15 | 48 | 76 | –
O=C(Nc1ccccc1C(=O)O)c1cc(O)c(O)c(O)c1 [compound 22, 2-[(3,4,5-trihydroxy-benzoyl)amino]benzoic acid] | 39 | 72 | 71 | –
COc1ccc(C(=O)Nc2ccccc2C(=O)O)cc1O [compound 23, 2-[(3-hydroxy-4-methoxybenzoyl)amino]-benzoic acid] | 9 | 29 | 69 | –
O=C(Nc1ccccc1C(=O)O)c1ccc(O)cc1 [compound 24, 2-[(4-hydroxy-benzoyl)amino]benzoic acid] | 7 | 19 | 55 | –
COc1cc(C(=O)Nc2ccccc2C(=O)O)ccc1O [compound 25, 2-[(4-hydroxy-3-methoxybenzoyl)amino]-benzoic acid] | 8 | 42 | 51 | –
O=C(Nc1ccccc1C(=O)O)c1ccc(O)cc1O [compound 26] | -13 | 22 | 48 | –
O=C(Nc1ccccc1C(=O)O)c1ccccc1 [compound 27] | 27 | 28 | 39 | –
O=C(Nc1ccccc1C(=O)O)c1cccc(O)c1 [compound 28, 2-[(3-hydroxy-benzoyl)amino]benzoic acid] | 12 | 25 | 35 | –
O=C(Nc1ccccc1C(=O)O)c1ccccc1O [compound 29] | -1 | 15 | 23 | –
O=C(/C=C/c1ccc(O)cc1)Nc1ccccc1C(=O)O [substance 10, N-(4-hydroxycinnamoyl)anthranilic Acid] | – | – | – | inhibition of antigen-induced destruction of rat mast cells [3]: 36.7%
COc1ccc(/C=C/C(=O)Nc2ccccc2C(=O)O)cc1OC [substance 15, N-(3,4-dimethoxy-cinnamoyl)anthranilic acid] | – | – | 21 | concentration for 50% inhibition of the substance P-induced histamine release [4]: 327 ppm; IC50 ([4]; Mast cell, read-out: concentration for 50% inhibition of the substance P-induced histamine release): 327 µg/mL (≈ 999 µM); concentration range inhibiting antigen-induced release of histamine ([5]; DNP ascaris, monoclonal IgE antibody with 2,4-dinitrophenyl-specificity): 10^−3 to 10^−5 M; IC50 ([5]; antigen-induced (DNP ascaris), read-out: concentration for 50% inhibition of the histamine release): ~100 µM; IC50 ([1]; Hachisuka et al. 1988, read-out: concentration for 50% inhibition of the substance P-induced histamine release): ~1000 µM; inhibition of antigen-induced destruction of rat mast cells [3]: 46.1%
